# Laboratory results from patent US9045474B2, “Compounds and compositions for mitigating tissue damage and lethality” (The Regents of the University of California, priority 2010, dated 2015).
# Assays:
# [1] = Mitigation assay of analogs at +30 min and +60 min after 8 Gy IR; settings: FIG. 20
# Experimental: Fourteen analogs of Yel001 and Yel002, whose structures are shown in FIGS. 19A and 19B, are subject to tests in a mitigation assay at +30 min and +60 min after 8 Gy radiation (IR).
# C3H mice = experiment: Mitigation of radiation-induced lethality in C3H mice (8Gy, LD100/30); settings: 8Gy
# Experimental: Radiomitigation studies were conduced by pre-treating C3H mice with the compounds of interest at as concentration of 75 mg/kg and at 24 hrs and 1 hr before an 8 Gy exposure. On a 5×24 mitigation treatment protocol mice were first lethally irradiated with 8 Gy and 24 hrs later received the first subcutaneous injection with the compound suspension with subsequent injections at 48, 72, 96, and 120 hrs. The concentration of the compound in the suspension was 75 mg/kg carrier with either 1N saline or phosphate buffer solution (PBS).
# C3H mice in the mitigation experiment were irradiated with 8Gy and then injected with 75 mg/kg 1 hr post exposure and then again 25 hrs post exposure.
smiles,measurement,setting,value
Cc1sc(NC(=O)CN(Cc2ccco2)C(=O)c2ccccc2)c(C(N)=O)c1C [CJ010],mitigation of IR damage,[1],consistently mitigates the IR damage
same,mitigation efficacy,C3H mice; 75 mg/kg s.c. 5×24 protocol,significantly mitigated IR-induced damages and death
same,survival at 30 days,"C3H mice; 75 mg/kg s.c. at 24, 48, 72, 96, 120 hrs (5×24)",75%
